For experiment [1], the system named is neutrophils. The experiment is described as follows: Neutrophil IL8 release, ELISA. In kind it is cell-based. Conditions: Homo sapiens, primed neutrophils, ELISA (FIG. 3). How it is done:
Neutrophils were cultured at 2×10^6 cells/ml in RPMI1640 medium containing human serum antibiotics and 20 ng/ml TNFα for 10 minutes prior to addition of a range of concentrations of compound 10. Release of IL8 was monitored after a 4 h period by ELISA. Data are mean of duplicate measurements representative of 5 separate experiments.
(§1) Anti-inflammatory effects against neutrophils were determined by assessing effects of several of the compounds on neutrophil inflammatory activity (superoxide generation, secretion of chemoattractant IL8 and degranulation to release myeloperoxidase). Neutrophils were isolated from human blood to a purity of greater than 95% and were cultured in RPMI1640 medium containing 2% human AB serum, 2 mM L-glutamine and antibiotics (100 U/ml penicillin, […] streptomycin). Neutrophils were primed for 30 minutes with 50 ng/ml GM-CSF prior to treatment with the bacterial stimulant fMLP (100 ng/ml) and measurement of superoxide generation in a lucigenin based assay (see Pongracz J and Lord J M 1998, Biochem. Biophys. Res. Commun. 247, 624-629) and release of IL8 and myeloperoxidase using an ELISA method. The novel compounds were added to the culture at a range of concentrations (0.1-100 μM) 10 minutes prior to addition of fMLP. […]
(ELISA stands for enzyme-linked immunosorbent assay.)

The subject of experiment [2] is breast carcinoma cell line MCF-7. Put plainly: In vitro cytotoxicity, Calcein AM assay, MCF7. In kind it is cell-based, human. The following applies: Homo sapiens, MCF7, 72 hours. From the text:
Low cytotoxicity of the compounds is the major property determining the cosmetic use. One of the parameters used, as the basis for cytotoxicity assays, is the metabolic activity of viable cells. For example, a microtiter assay, which uses the Calcein AM, is now widely used to quantitate cell proliferation and cytotoxicity. For instance, this assay is used in drug screening programs and in chemosensitivity testing. Because only metabolically active cells cleave Calcein AM, these assays detect viable cells exclusively. The quantity of […] Calcein AM corresponds to the number of vital cells in the culture.
Human T-lymphoblastic leukemia cell line CEM; promyelocytic HL-60 and monocytic U937 leukemias; breast carcinoma cell lines MCF-7, BT549, MDA-MB-231; glioblastoma U87MG cells; cervical carcinoma cells HELA; sarcoma cells U2OS and Saos2; hepatocellular carcinoma HepG2; mouse fibroblasts NIH3T3; mouse immortalized bone marrow macrophages B2.4 and B10A.4; P388D1 and L1210 leukemia; B16 and B16F10 melanomas; human osteosarcoma HOS; human myeloid leukemia K-562; human skin melanoma G-361 were used for routine screening of compounds. The cells were maintained in Nunc/Corning 80 cm^2 plastic tissue culture flasks and cultured in cell culture medium (DMEM with 5 g/l glucose, 2 mM glutamine, 100 U/mL penicillin, 100 μg/mL streptomycin, 10% fetal calf serum and sodium bicarbonate).
The cell suspensions that were prepared and diluted according to the particular cell type and the expected target cell density (2.500-30.000 cells per well based on cell growth characteristics) were added by pipette ([…]) into 96/well microtiter plates. Inoculates were allowed a pre-incubation period of 24 hours at 37° C. and 5% CO2 for stabilisation. Four-fold dilutions of the intended test concentration were added at time zero in 20 μl aliquots to the microtiter plate wells. Usually, the compound tested was evaluated at six 4-fold dilutions. In routine testing, the highest well concentration was 100 μM, but it can be the matter of change dependent on the agent. All drug concentrations were examined in duplicates. Incubations of cells with the tested compounds lasted for 72 hours at 37° C., in 5% CO2 atmosphere and 100% humidity. At the end of the incubation period, the cells were assayed by using Calcein AM. Ten microliters of the stock solution were pipetted into each well and incubated for 1 hour. Fluorescence (FD) was measured with the Labsystem FIA Reader Fluoroscan Ascent (UK). The tumour cell survival (GI50) was calculated using the following equitation: TCS=(FDdrug exposed well/mean FDeontrol wells)×100%. The GI50 value, the drug concentration lethal to 50% of the tumour cells, was calculated from the obtained dose response curves.
Zero cytotoxicity of the novel compounds is the basic prerequisite for agricultural and tumor-unrelated applications. The cytoxicity of the novel compounds was tested on a panel of cell lines of different histogenetic and species origin (Table 9). We show herein that equal activities were found in all tumour cell lines tested, however, the non-malignant cells, e.g. NIH3T3 fibroblasts and normal human lymphocytes, were resistant to 2,6-disubstituted purine ribosides induced cytotoxicity. The compounds listed in Tab. 9 can be divided into 2 groups. The first group contains “classical cytokinins” represented by 6-substituted purine ribosides (which are known in the prior art). The second group contains the novel 2,6-disubstituted derivatives of these compounds. […] GI50 for NIH3T3 fibroblasts and normal human lymphocytes was always higher than 100 μM. The novel derivatives show no toxicity to normal and tumour cells in concentrations about 100 μM and thus are more suitable for agricultural applications than “classical cytokinins” (6-substituted purine riboside derivatives).

For experiment [3], the system named is neutrophils. Put plainly: Neutrophil degranulation, release of myeloperoxidase, ELISA. In kind it is cell-based. The following applies: Homo sapiens, primed neutrophils, ELISA (FIG. 4). How it is done:
Neutrophils were cultured at 2×10^6 cells/ml in RPMI1640 medium containing human serum antibiotics and 20 ng/ml TNFα for 10 minutes prior to addition of a range of concentrations of compound 10. Release of MPO was monitored after a 30 minute period by ELISA. Data are mean of duplicate measurements representative of 5 separate experiments.
as §1

The test system of a further experiment is β-adrenergic receptors. The experiment is described as follows: Isoproterenol-induced cAMP synthesis in rat C6 glioma (anti-inflammatory activity). In kind it is cell-based. How it is done: Anti-inflammatory activity of several of the 2-substituted 6-benzylaminopurine riboside derivatives of this invention was determined; kinetin riboside was also evaluated as a control. Rat C6 glioma (ATCC No. CCL107) was cultivated in monolayer in serum-free chemically defined medium containing Ham's F10/minimal essential medium (1:1 v/v), 2 mM L-glutamine, 1% (v/v) minimal essential medium vitamins (100×), 1% (v/v) minimal essential medium nonessential amino acids (100×), 100 U/mL penicillin, […], and 30 nM sodium selenite. Incubation was performed at 37° C. in a humidified atmosphere. The assays were performed in the logaritmic growth phase at a density of 2.5×10^5 cells/cm^2.
Intracellular cAMP synthesis was induced by addition of 5 mM (−)-isoproterenol; various amounts of test compounds were added at the same time as the (−)-isoproterenol. After […] incubation at 37° C., the medium was removed and the cellular amount of cAMP was determined using the cAMP-enzyme immunoassay kit from Amersham. The I50 value was determined from a dose-response curve in duplicate. The effect of nine purine analogues was measured after simultaneous addition with isoproterenol.
As P2Y1-like and A2 purinergic receptors, negatively and positively coupled to adenylate cyclase respectively, are present on rat C6 glioma as to be determined if the modulation of the synthesis of cAMP is due to inhibition of the activation of β-adrenergic receptors by isoproterenol are due to activation of purinergic receptors.

The structures appear in SMILES notation. A value given as a limit tells only on which side of the number the result lay.

The term GI50 denotes the concentration that inhibits growth by half. On to `COc1cccc(CNc2nc(Cl)nc3c2ncn3C2OC(CO)C(O)C2O)c1O` (centres unmarked) [Compound 10, 2-Chloro-6-(2-hydroxy-3-methoxybenzylamino)purine riboside], for which the IC50 in the experiment on neutrophils [1] turned out to be 50 nM; in the experiment with neutrophils [3] it was 4 µM; in the experiment with β-adrenergic receptors (cellular cAMP by enzyme immunoassay, dose-response curve in duplicate, read-out: I50), 7.5 ± 1 µM. Further, in experiment [2], the GI50 is above 100 µM. The “Effect (modulation of isoproterenol-induced cAMP synthesis)” value in the experiment on β-adrenergic receptors (added simultaneously with (−)-isoproterenol) is “inhibition”.

The values are drawn from US20140066394A1, “Substituted 6-(Benzylamino) Purine Riboside Derivatives, Use Thereof and Compositions Containing These Derivatives” (Biopatterns, S.R.O, priority 2009, published 2014).
